Measurements taken from paper PMC6061170, “Synthesis and biological investigations of 3β-aminotropane arylamide derivatives with atypical antipsychotic profile” (Medicinal Chemistry Research, 2018).
Where a name gives a salt, the structure may show the parent alone. Read-outs that look alike come from different tables or passages of the source.

How the values were obtained:
[1] = target: T1, serotonin 5-HT2A receptors (Rattus norvegicus, UniProt P14842); experiment: Radioligand binding assay, 5-HT2A receptors
T1 construct: from tissue; host or cells: rat brain tissues
T1 sequence (P14842 whole entry): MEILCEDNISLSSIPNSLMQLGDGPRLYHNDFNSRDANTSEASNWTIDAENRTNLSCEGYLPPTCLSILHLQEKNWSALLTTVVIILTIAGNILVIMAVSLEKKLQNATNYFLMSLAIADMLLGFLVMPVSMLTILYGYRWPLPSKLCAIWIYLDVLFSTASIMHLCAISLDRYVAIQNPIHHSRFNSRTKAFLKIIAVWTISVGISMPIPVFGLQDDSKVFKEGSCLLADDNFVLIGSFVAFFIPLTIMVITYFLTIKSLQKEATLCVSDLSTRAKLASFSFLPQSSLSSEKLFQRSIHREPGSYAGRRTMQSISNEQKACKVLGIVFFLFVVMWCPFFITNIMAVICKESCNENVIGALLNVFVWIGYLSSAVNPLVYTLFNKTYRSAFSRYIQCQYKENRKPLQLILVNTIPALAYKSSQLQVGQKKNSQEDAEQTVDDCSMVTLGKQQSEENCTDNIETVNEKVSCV

dopamine D2 receptors = dopamine D2 receptors (Rattus norvegicus, UniProt P61169); experiment: Radioligand binding assay, D2 receptors
dopamine D2 receptors, sequence (P61169 1-415 isoform P61169-2): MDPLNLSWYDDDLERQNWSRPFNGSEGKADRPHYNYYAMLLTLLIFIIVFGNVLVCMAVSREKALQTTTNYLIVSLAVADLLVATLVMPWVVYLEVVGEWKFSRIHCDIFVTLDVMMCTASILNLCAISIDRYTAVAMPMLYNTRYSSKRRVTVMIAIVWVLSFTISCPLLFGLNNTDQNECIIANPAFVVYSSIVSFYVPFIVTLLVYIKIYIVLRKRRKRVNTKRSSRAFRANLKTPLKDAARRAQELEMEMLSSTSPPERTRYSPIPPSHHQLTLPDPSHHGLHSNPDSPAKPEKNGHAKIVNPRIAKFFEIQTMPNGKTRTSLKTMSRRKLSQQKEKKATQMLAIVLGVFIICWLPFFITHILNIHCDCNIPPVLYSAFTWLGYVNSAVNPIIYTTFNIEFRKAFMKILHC

[2] = target: T2, serotonin 5-HT1A receptors (Rattus norvegicus, UniProt P19327); experiment: Radioligand binding assay, 5-HT1A receptors
T2 construct: from tissue; host or cells: rat brain tissues
T2 sequence (P19327 1-422): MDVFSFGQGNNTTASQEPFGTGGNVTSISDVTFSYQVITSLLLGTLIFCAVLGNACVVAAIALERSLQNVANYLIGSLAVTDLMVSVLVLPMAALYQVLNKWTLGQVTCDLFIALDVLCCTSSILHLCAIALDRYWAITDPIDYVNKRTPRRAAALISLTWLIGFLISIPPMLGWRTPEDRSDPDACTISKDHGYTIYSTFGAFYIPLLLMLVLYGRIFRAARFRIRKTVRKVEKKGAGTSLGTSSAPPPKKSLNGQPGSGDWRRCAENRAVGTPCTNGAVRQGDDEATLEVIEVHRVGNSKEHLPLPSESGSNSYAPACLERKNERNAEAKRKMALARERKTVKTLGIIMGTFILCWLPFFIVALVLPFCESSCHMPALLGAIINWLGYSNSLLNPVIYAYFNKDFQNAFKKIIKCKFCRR
Method: All compounds were tested for their affinities for 5-HT1A, 5-HT2A, and D2 receptors according to previously described procedures (Stefanowicz et al. [2016]).
Competition binding studies were performed according to a previously described procedure in rat brain tissues (Stefanowicz et al. [2016]).

Albino Swiss mice [3] = experiment: Four-plate test
Albino Swiss mice [4] = experiment: Forced swim test; settings: last 4 min of session
[5] = rat brain tissues, read-out: 5-HT2A IC50 [nM] ± SEM
[6] = rat brain tissues, read-out: 5-HT2A Ki [nM] ± SEM
[7] = rat brain tissues, read-out: D2 IC50 [nM] ± SEM
[8] = rat brain tissues, read-out: 5-HT1A IC50 [nM] ± SEM
[9] = rat brain tissues, read-out: D2 Ki [nM] ± SEM
[10] = rat brain tissues, read-out: 5-HT1A Ki [nM] ± SEM
[11] = 2.5 mg/kg i.p. 30 min before test
[12] = 5 mg/kg i.p. 30 min before test
[13] = 1.25 mg/kg i.p. 30 min before test

Row | Structure (SMILES) | melting point | IC50 [1, 5] | Ki [1, 6] | Ki (dopamine D2 receptors) | IC50 (dopamine D2 receptors; [7]) | Ki [2] | IC50 [2, 8] | Ki (dopamine D2 receptors; [9]) | Ki [2, 10] | also measured
1 | Cc1ccc(CN2C3CCC2CC(NC(=O)c2ccc4ccccc4n2)C3)cc1 (stereo not drawn) (as salt: oxalate) [Compound 12i, N-[8-(4-methylbenzyl)-8-azabicyclo[3.2.1]oct-3β-yl)]-quinoline-2-carboxamide oxalate] | 215 to 215.4 °C | – | – | – | – | – | – | – | – | –
2 | Cc1ccccc1CN1C2CCC1CC(NC(=O)c1ccc3ccccc3n1)C2 (centres unmarked) [Compound 12a] | 120.8 to 121.4 °C | > 10000 nM | > 10000 nM | 52 ± 4 nM | 263 ± 20.5 nM | 46.6 ± 2.2 nM | 140 ± 6.7 nM | – | – | –
3 | Cc1ccccc1CN1C2CCC1CC(NC(=O)c1cnc3ccccc3c1)C2 (centres unmarked) [Compound 12b] | 179.2 to 180.2 °C | 3780 ± 348 nM | 1030 ± 94 nM | – | 1630 ± 23 nM | 81.5 ± 5 nM | 244 ± 14.9 nM | 326 ± 4.5 nM | – | –
4 | Cc1ccccc1CN1C2CCC1CC(NC(=O)c1ccc3ncccc3c1)C2 (centres unmarked) [Compound 12c] | 211.4 to 212.7 °C | > 10000 nM | > 10000 nM | – | 1270 ± 63 nM | – | 1350 ± 159 nM | 254 ± 12.8 nM | 450 ± 53 nM | –
5 | COc1cc(C(=O)NC2CC3CCC(C2)N3Cc2ccccc2C)nc2ccccc12 (centres unmarked) [Compound 12d] | 54.5 to 55.9 °C | > 10000 nM | > 10000 nM | – | > 10000 nM | 34 ± 1.7 nM | 102 ± 4.9 nM | > 10000 nM | – | Number of punished crossings /1 min Mean ± SEM (Albino Swiss mice [3]; [11]): 3.3 ± 0.3 crossings/1 min; Number of punished crossings /1 min Mean ± SEM (Albino Swiss mice [3]; [12]): 4.8 ± 0.3 crossings/1 min; Number of punished crossings /1 min Mean ± SEM (Albino Swiss mice [3]; 10 mg/kg i.p. 30 min before test): 4.7 ± 0.8 F(3,36) = 3.1652; p < 0.05 crossings/1 min; Immobility time (s) Mean ± SEM (Albino Swiss mice [4]; [13]): 144.22 ± 14.5 s; Immobility time (s) Mean ± SEM (Albino Swiss mice [4]; [11]): 113.44 ± 14.9 s; Immobility time (s) Mean ± SEM (Albino Swiss mice [4]; [12]): 150.8 ± 11.4 F(3,32) = 5.5680; NS s
6 | Cc1cccc(CN2C3CCC2CC(NC(=O)c2cnc4ccccc4c2)C3)c1 (centres unmarked) [Compound 12f] | 194 to 194.7 °C | 5290 ± 148 nM | 1440 ± 40.5 nM | – | 2730 ± 202 nM | 84.5 ± 3.4 nM | 255 ± 9.6 nM | 546 ± 40.2 nM | – | –
7 | Cc1cccc(CN2C3CCC2CC(NC(=O)c2ccc4ncccc4c2)C3)c1 (centres unmarked) [Compound 12g] | 174.4 to 175.5 °C | > 10000 nM | > 10000 nM | – | 1370 ± 81.8 nM | – | 867 ± 29.7 nM | 275 ± 16.5 nM | 289 ± 9.9 nM | –
8 | COc1cc(C(=O)NC2CC3CCC(C2)N3Cc2cccc(C)c2)nc2ccccc12 (centres unmarked) [Compound 12h] | 116.1 to 118.3 °C | > 10000 nM | > 10000 nM | – | 2510 ± 271 nM | 21 ± 2 nM | – | 503 ± 54.5 nM | – | Number of punished crossings /1 min Mean ± SEM (Albino Swiss mice [3]; [13]): 5.3 ± 0.3; p < 0.001 crossings/1 min; Number of punished crossings /1 min Mean ± SEM (Albino Swiss mice [3]; [11]): 5.5 ± 0.5; p < 0.001 crossings/1 min; Number of punished crossings /1 min Mean ± SEM (Albino Swiss mice [3]; [12]): 2.9 ± 0.3 F(3,36) = 17.202; p < 0.00001 crossings/1 min; increase of punished crossings vs. respective control group (Albino Swiss mice [3]; 1.25 and 2.5 mg/kg i.p.): ~60%; Immobility time (s) Mean ± SEM (Albino Swiss mice [4]; 0.625 mg/kg i.p. 30 min before test): 163.29 ± 10.7 s; Immobility time (s) Mean ± SEM (Albino Swiss mice [4]; [13]): 134.78 ± 12.9 s; Immobility time (s) Mean ± SEM (Albino Swiss mice [4]; [11]): 185.00 ± 15.0 F(3,30) = 3.5680; p < 0.05 s; IC50 [2]: 62.8 ± 6.2 nM
9 | Cc1ccc(CN2C3CCC2CC(NC(=O)c2cnc4ccccc4c2)C3)cc1 (centres unmarked) [Compound 12j] | 219.5 to 220.8 °C | > 10000 nM | > 10000 nM | 45.3 ± 7.5 nM | 227 ± 37.6 nM | – | 493 ± 44.5 nM | – | 164 ± 15 nM | –
10 | Cc1ccc(CN2C3CCC2CC(NC(=O)c2ccc4ncccc4c2)C3)cc1 (centres unmarked) [Compound 12k] | 211.9 to 213 °C | > 10000 nM | > 10000 nM | 34.2 ± 0.8 nM | 172 ± 5 nM | – | 1530 ± 58 nM | – | 511 ± 19 nM | –
11 | O=C(NC1CC2CCC(C1)N2Cc1ccccn1)c1ccc2ccccc2n1 (centres unmarked) [Compound 12l] | 150.2 to 151 °C | > 10000 nM | > 10000 nM | – | 3080 ± 350 nM | – | 665 ± 14.3 nM | 616 ± 70.3 nM | 221 ± 4.7 nM | –
12 | O=C(NC1CC2CCC(C1)N2Cc1ccccn1)c1cnc2ccccc2c1 (centres unmarked) [Compound 12m] | 169.4 to 170.5 °C | > 10000 nM | > 10000 nM | – | > 10000 nM | – | 850 ± 135 nM | > 10000 nM | 283 ± 45 nM | –
13 | O=C(NC1CC2CCC(C1)N2Cc1ccccn1)c1ccc2ncccc2c1 (centres unmarked) [Compound 12n] | 193.7 to 194.5 °C | – | – | > 10000 nM | – | > 10000 nM | – | – | – | IC50 [1]: > 10000 nM; Ki [1]: > 10000 nM; IC50 (dopamine D2 receptors): > 10000 nM; IC50 [2]: > 10000 nM
